Reference: paper PMC4127372 (Journal of pharmaceutical and biomedical analysis, 2014)

Settings: pre-tested baboon plasma following intravenous infusion

In the case of `CCCCCCCCCCNCCN[C@@]1(C)C[C@H](O[C@H]2[C@H](Oc3c4cc5cc3Oc3ccc(cc3Cl)[C@@H](O)[C@@H](NC(=O)[C@@H](CC(C)C)NC)C(=O)N[C@@H](CC(N)=O)C(=O)N[C@H]5C(=O)N[C@H]3C(=O)N[C@H](C(=O)N[C@H](C(=O)O)c5cc(O)c(CNCP(=O)(O)O)c(O)c5-c5cc3ccc5O)[C@H](O)c3ccc(c(Cl)c3)O4)O[C@H](CO)[C@@H](O)[C@@H]2O)O[C@@H](C)[C@H]1O` [telavancin], the “lowest concentration of telavancin determined in pre-tested baboon plasma” value is reported as “approximately 200 ng/ml”.
